Measurements published in paper PMC12610274, “Identification of Marrubiin as a Cathepsin C Inhibitor for Treating Rheumatoid Arthritis” (Molecules, 2025).
Blank lines part the entries; values can stand above or below the molecule they belong to.

Legend:
[1] = biological target: T1, intracellular CTSC (Homo sapiens, UniProt P53634); test: CTSC cell-based assay using the U937 cell line; conditions: read-out: Cell-Based Enz (IC50: nM)
T1 construct: endogenous in cells; host or cells: U937
Protocol: Cell-based CTSC enzymatic activity assays were performed in 96-well clear-bottom black microplates. […] The detection substrate, H-Gly-Arg-AFC, was diluted to 100 µM in serum-free medium and stored for later use. U937 cells in the logarithmic growth phase were harvested, washed with PBS, and counted. A single-cell suspension was prepared at a density of 1.0 × 10^6 cells/mL using serum-free medium. 30 µL of cell suspension was seeded into each well of the 96-well plate. To the test wells, 10 µL of the compound working solution was added, while 10 µL of serum-free medium was added to the control wells. The plate was pre-incubated in a cell culture incubator at 37 °C for 3 h. Subsequently, 10 µL of H-Gly-Arg-AFC was added to initiate the enzymatic reaction, and the plate was further incubated at 37 °C for 1 h. Fluorescence measurements were performed using a multimode microplate reader at excitation/emission wavelengths of 400/505 nm. Each group of tests was independently repeated at least 3 times, and IC50 values were calculated using SPSS 10.0.

[2] = Cytotoxicity assay, U937 cell line; type: cell-based; conditions: human, U937 cells
Protocol: (§1) RAW264.7 cells and U937 cells in the logarithmic growth phase were counted and diluted, and the concentrations of the single-cell suspensions of the two types of cells were adjusted to 5 × 10^4 cells/mL and 3 × 10^4 cells/mL, respectively. After thorough mixing, the cells were seeded into a 96-well plate, with 100 μL of cell suspension added to each well. Prepare the working solution of test compounds using the corresponding medium as the solvent, with the concentration of working solution being 2 times the final test concentration (2.5 μM, 5 μM, 10 μM, 20 μM, and 40 μM). Twenty-four hours after cell seeding, the compound working solutions were added to the compound test wells, and the same volume of medium was added to the negative control wells, followed by continuous incubation for another 24 h. Only the wells with the same volume but without cells served as the blank control group. The CellTiter-Lumi™ luminescent cell viability assay kit (Beyotime Biotechnology, Shanghai, China, C0065XL) was used to detect cell viability according to the standard operating procedures. Each group of tests was independently repeated at least 3 times, and IC50 values were calculated using SPSS 10.0.

[3] = Cytotoxicity assay, RAW264.7 cell line; type: cell-based; conditions: mouse, RAW264.7 cells
Protocol: as §1

[4] = biological target: T2, CTSC (Homo sapiens, UniProt P53634); test: Human recombinant CTSC isolated enzyme assay; type: biochemical; parameters: purchased R&D Systems; conditions: human recombinant CTSC, cell-free, 12-point dose-response; read-out: CTSC Enz (IC50: nM)
Protocol: Both recombinant CTSL and CTSC for in vitro cell-free-based enzymatic activity assay can be purchased from R&D Systems (Minneapolis, MN, USA), a biotechnology company. According to the standardized procedures and material ratios provided by R&D Systems, prepare the activation solution (25 mM MES + 5 mM DTT, pH 6.0) and the assay solution (25 mM MES + 50 mM NaCl + 5 mM DTT, pH 6.0) in advance for later use. Dilute the detection substrate H-Gly-Arg-AMC to a 200 µM solution with the assay solution for standby. Prepare the working solution of compounds to be tested using the assay solution, with the concentration of working solution being 10 times the final test concentration. Dilute CTSC and CTSL, respectively, with cold activation solution. Thoroughly mix the two activation solutions containing the proteins to achieve final concentrations of 300 nM for CTSL and 440 nM for CTSC. After co-incubation for 1 h, the activated CTSC treated with CTSL can be used for the enzymatic activity inhibition efficacy test of compounds. Dilute the activated CTSC to 4.4 nM with cold assay buffer. Incubate 4 μL of the activated CTSC with 1 μL of the compound working solution (test group) or 1 μL of blank assay solution (control group) at room temperature for 3 h. Then, add 5 μL of the detection substrate to achieve a final concentration of 100 μM. Mix 5 µL each of the assay solution and the substrate solution as the blank group. After 1 h, the absorbance of detection substrate was measured using a multifunctional microplate reader at excitation/emission wavelengths of 380 nm/460 nm. The inhibitory efficacy of molecules on enzyme activity was calculated based on the absorbance difference between test group and control group. […] Each group of tests mentioned above was independently repeated at least 3 times, and IC50 values were calculated using SPSS 10.0.
Target sequence in this assay (P53634 25-134 limits assumed): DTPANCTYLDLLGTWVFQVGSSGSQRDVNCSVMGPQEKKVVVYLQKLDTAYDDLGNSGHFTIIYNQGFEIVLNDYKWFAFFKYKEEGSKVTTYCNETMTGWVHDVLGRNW
Target sequence in this assay (P53634 231-394 limits assumed): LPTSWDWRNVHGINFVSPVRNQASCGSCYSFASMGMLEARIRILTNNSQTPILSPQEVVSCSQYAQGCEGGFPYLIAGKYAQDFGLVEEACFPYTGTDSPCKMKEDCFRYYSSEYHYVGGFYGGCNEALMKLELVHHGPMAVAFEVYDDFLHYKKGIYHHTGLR
Target sequence in this assay (P53634 395-463 limits assumed): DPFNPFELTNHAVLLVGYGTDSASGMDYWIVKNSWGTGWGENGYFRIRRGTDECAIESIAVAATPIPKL

[5] = tested on: NE; test: NSPs activity in U937 cells after 5 days of treatment, NE; type: cell-based, human; conditions: U937, 10 μM
Protocol: (§2) U937 cells in the logarithmic growth phase were collected and equally divided into six portions. Four of these portions were treated with DMSO solutions of the test compound at varying concentrations to achieve final concentrations of 1.25, 2.5, 5, and 10 μM, respectively. An equal volume of DMSO was added to one portion as a blank control, while another portion treated with a DMSO solution of AZD7986 served as a positive control. The cells were cultured under standard U937 conditions for 5 consecutive days, with daily medium changes and fresh compound treatments administered using the same protocol. Following 5 days of treatment, cells were harvested, washed twice thoroughly with phosphate-buffered saline, and lysed in phosphate-buffered saline containing 1% Triton X-100. The lysates were centrifuged to collect the supernatant, and protein concentrations were determined as previously described to ensure equal total protein loading across all samples. The prepared samples were stored at −20 °C until further analysis. Different assay buffers were prepared for diluting samples and measuring the activities of specific NSPs: a buffer containing 50 mM Tris and 750 mM NaCl (pH 7.4) was used for NE and PR3; a buffer containing 50 mM Tris, 750 mM NaCl, 5 mM EDTA (pH 7.4) was used for Cat G; and a buffer containing 25 mM MES, 50 mM NaCl, 5 mM DTT (pH 6.0) was used for CTSC. […]

[6] = tested on: PR3; test: NSPs activity in U937 cells after 5 days of treatment, PR3; type: cell-based, human; conditions: U937, 10 μM
Protocol: as §2

[7] = tested on: Cat G; test: NSPs activity in U937 cells after 5 days of treatment, Cat G; type: cell-based, human; conditions: U937, 10 μM
Protocol: as §2

[8] = biological target: T3, CTSC (Mus musculus, UniProt P97821); test: CTSC activity in blood and bone marrow of mice; type: in vivo, C57BL/6 mice; conditions: 30 mg/kg daily gavage, 7 days
T3 construct: from tissue; host or cells: mouse blood and bone marrow lysates
T3 sequence (P97821 25-462): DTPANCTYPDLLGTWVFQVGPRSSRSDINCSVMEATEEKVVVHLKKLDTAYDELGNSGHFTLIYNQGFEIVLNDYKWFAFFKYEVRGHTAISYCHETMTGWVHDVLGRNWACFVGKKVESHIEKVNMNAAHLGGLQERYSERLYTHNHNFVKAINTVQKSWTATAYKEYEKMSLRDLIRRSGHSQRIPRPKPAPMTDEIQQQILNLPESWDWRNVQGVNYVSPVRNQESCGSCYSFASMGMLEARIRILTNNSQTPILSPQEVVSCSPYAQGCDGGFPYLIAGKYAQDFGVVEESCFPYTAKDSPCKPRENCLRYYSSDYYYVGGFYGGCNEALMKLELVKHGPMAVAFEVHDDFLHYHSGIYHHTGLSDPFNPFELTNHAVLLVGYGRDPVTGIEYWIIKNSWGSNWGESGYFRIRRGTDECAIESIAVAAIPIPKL
Protocol: (§3) A total of 25 C57BL/6 mice (6–8 weeks old, weighing approximately 20 g, with equal numbers of males and females) were randomly divided into five groups. Mice in the compound-treated groups were orally administered the compound once daily at doses of 0.3, 3, and 30 mg/kg for 7 consecutive days. […] Mice in the normal group were given an equal volume of normal saline at the same time points. The body weight, death rate, and behavior were observed and recorded daily for one week. After 7 days, bone marrow and blood samples were collected from the mice and lysed using 8% Triton X-100 buffer. The lysates were stored at −20 °C until testing. The activity assays for CTSC and NSPs were performed as described above. The mice were anesthetized and the tissues were taken for H&E staining.

[9] = tested on: NE; test: NE activity in blood and bone marrow of mice; type: in vivo, C57BL/6 mice; conditions: 30 mg/kg daily gavage, 7 days
Protocol: as §3

[10] = tested on: PR3; test: PR3 activity in blood and bone marrow of mice; type: in vivo, C57BL/6 mice; conditions: 30 mg/kg daily gavage, 7 days
Protocol: as §3

[11] = tested on: Cat G; test: Cat G activity in blood and bone marrow of mice; type: in vivo, C57BL/6 mice; conditions: 30 mg/kg daily gavage, 7 days
Protocol: as §3

[12] = tested on: AIA model; test: Adjuvant-induced arthritis (AIA) model, disease severity; type: in vivo, Sprague-Dawley rats; conditions: rat AIA
Protocol: (§4) Thirty 4-week-old male Sprague-Dawley rats (weighing 120–130 g) were randomly divided into 6 groups (5 rats per group) after 1 week of adaptive feeding, namely the normal group, model group, low-dose experimental group (15 mg/kg), medium-dose experimental group (30 mg/kg), high-dose experimental group (60 mg/kg), and positive control group (30 mg/kg). Starting from Day 0 of the experiment, rats in the administration groups and model group were injected intradermally with 0.1 mL of CFA into the left hind paw to induce AIA, while rats in the normal group were injected intradermally with an equal volume (0.1 mL) of normal saline as a control. After 13 consecutive days of feeding, rats treated with CFA successfully developed typical AIA symptoms. […] During the experiment, the body weight, mental state, activity ability, hair color changes, and paw appearance changes of the rats were observed and recorded daily. In addition, on Day 0 of the experiment (baseline period), the basic paw volume of all rats was accurately measured using a plethysmometer, which served as a reference standard for subsequent evaluation of inflammation severity. From Day 13 to Day 28 of the experiment, the paw volume of the rats was measured repeatedly every 3 days. The degree of paw swelling was quantified by calculating the change in paw volume relative to the baseline. Meanwhile, the arthritis index score was calculated based on the range of paw redness and swelling, the severity of swelling, and the degree of limb movement limitation, so as to comprehensively evaluate the inflammatory state. On Day 28 of the experiment (the end of the administration cycle), blood samples were collected via abdominal aortic puncture. The blood samples were centrifuged at 3000 rpm for 20 min, and the upper serum was collected and stored at −20 °C for subsequent detection. The rats were then sacrificed, and their ankle joint tissues were harvested for subsequent pathological section observation and analysis. The cytokine levels in serum were measured. The activity detection of CTSC and NSPs was carried out according to the above methods.

[13] = biological target: T4, CTSC (Rattus norvegicus, UniProt P80067); test: AIA model, serum CTSC activity; type: in vivo, Sprague-Dawley rats; conditions: 30 mg/kg gavage, 15 days
T4 construct: from tissue; host or cells: serum of Sprague-Dawley rats (AIA model)
T4 sequence (P80067 25-462): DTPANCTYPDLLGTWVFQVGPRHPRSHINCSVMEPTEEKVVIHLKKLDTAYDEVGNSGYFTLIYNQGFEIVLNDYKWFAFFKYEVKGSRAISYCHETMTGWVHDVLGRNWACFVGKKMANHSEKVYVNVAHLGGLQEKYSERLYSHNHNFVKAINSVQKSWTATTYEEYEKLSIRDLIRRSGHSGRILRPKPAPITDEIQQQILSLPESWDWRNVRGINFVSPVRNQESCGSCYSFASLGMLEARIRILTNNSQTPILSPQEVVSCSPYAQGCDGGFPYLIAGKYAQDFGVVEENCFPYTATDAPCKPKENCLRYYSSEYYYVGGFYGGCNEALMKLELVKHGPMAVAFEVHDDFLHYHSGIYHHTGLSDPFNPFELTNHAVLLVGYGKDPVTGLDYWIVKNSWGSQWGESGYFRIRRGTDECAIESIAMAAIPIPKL
Protocol: as §4, with “Meanwhile, the arthritis index score was calculated based on the range of paw redness and swelling, the severity of swelling, and the degree of limb movement limitation, so as to comprehensively evaluate the inflammatory state. On Day 28 of the experiment (the end of the administration cycle), blood samples were collected via abdominal aortic puncture. The blood samples were centrifuged at 3000 rpm for 20 min, and the upper serum was collected and stored at −20 °C for subsequent detection. The rats were then sacrificed, and their ankle joint tissues were harvested for subsequent pathological section observation and analysis.” left out, “The activity detection of CTSC and NSPs was carried out according to the above methods.” left out

[14] = tested on: NE; test: AIA model, serum NE activity; type: in vivo, Sprague-Dawley rats; conditions: rat AIA, 30 mg/kg gavage, 15 days
Protocol: as §4, with “Meanwhile, the arthritis index score was calculated based on the range of paw redness and swelling, the severity of swelling, and the degree of limb movement limitation, so as to comprehensively evaluate the inflammatory state. On Day 28 of the experiment (the end of the administration cycle), blood samples were collected via abdominal aortic puncture. The blood samples were centrifuged at 3000 rpm for 20 min, and the upper serum was collected and stored at −20 °C for subsequent detection. The rats were then sacrificed, and their ankle joint tissues were harvested for subsequent pathological section observation and analysis.” left out, “The activity detection of CTSC and NSPs was carried out according to the above methods.” left out

[15] = tested on: PR3; test: AIA model, serum PR3 activity; type: in vivo, Sprague-Dawley rats; conditions: rat AIA, 30 mg/kg gavage, 15 days
Protocol: as §4, with “Meanwhile, the arthritis index score was calculated based on the range of paw redness and swelling, the severity of swelling, and the degree of limb movement limitation, so as to comprehensively evaluate the inflammatory state. On Day 28 of the experiment (the end of the administration cycle), blood samples were collected via abdominal aortic puncture. The blood samples were centrifuged at 3000 rpm for 20 min, and the upper serum was collected and stored at −20 °C for subsequent detection. The rats were then sacrificed, and their ankle joint tissues were harvested for subsequent pathological section observation and analysis.” left out, “The activity detection of CTSC and NSPs was carried out according to the above methods.” left out

[16] = tested on: Cat G; test: AIA model, serum Cat G activity; type: in vivo, Sprague-Dawley rats; conditions: rat AIA, 30 mg/kg gavage, 15 days
Protocol: as §4, with “Meanwhile, the arthritis index score was calculated based on the range of paw redness and swelling, the severity of swelling, and the degree of limb movement limitation, so as to comprehensively evaluate the inflammatory state. On Day 28 of the experiment (the end of the administration cycle), blood samples were collected via abdominal aortic puncture. The blood samples were centrifuged at 3000 rpm for 20 min, and the upper serum was collected and stored at −20 °C for subsequent detection. The rats were then sacrificed, and their ankle joint tissues were harvested for subsequent pathological section observation and analysis.” left out, “The activity detection of CTSC and NSPs was carried out according to the above methods.” left out

[17] = biological target: T2, CTSC; test: CTSC activity in U937 cells after 5 days of treatment; type: cell-based; parameters: endogenous in cells; host or cells: U937; conditions: U937, 5 days, marrubiin and AZD7986 at the same concentration
Protocol: as §2
Target sequence in this assay (P53634 25-463): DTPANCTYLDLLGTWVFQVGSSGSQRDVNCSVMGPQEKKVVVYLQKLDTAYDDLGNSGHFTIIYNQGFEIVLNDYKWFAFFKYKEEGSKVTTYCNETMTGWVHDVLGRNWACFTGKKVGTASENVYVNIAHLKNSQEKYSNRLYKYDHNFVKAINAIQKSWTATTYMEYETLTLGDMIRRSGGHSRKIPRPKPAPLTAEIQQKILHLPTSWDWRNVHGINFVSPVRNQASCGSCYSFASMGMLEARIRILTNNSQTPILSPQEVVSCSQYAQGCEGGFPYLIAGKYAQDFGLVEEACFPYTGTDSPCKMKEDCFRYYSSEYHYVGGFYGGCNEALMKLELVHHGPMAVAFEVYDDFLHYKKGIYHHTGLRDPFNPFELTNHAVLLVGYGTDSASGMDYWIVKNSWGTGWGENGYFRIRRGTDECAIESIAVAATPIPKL

T1 sequence (P53634 25-463): as above

- IC50 [1]: > 5000 nM
- IC50 [4]: 125 ± 2.9 nM
Structure (SMILES): CC1(C)CC[C@]2(C(=O)O)[C@H](O)C[C@]3(C)C(=CC[C@@H]4[C@@]5(C)CC[C@H](O)[C@@](C)(C=O)[C@@H]5CC[C@]43C)[C@@H]2C1 [Quillaic acid, quillaic acid]
- IC50 at 24 h [2]: > 10 µM
- IC50 at 24 h [3]: > 10 µM

Structure (SMILES): Cn1c(=O)oc2ccc(-c3ccc(C[C@@H](C#N)NC(=O)[C@@H]4CNCCCO4)cc3)cc21 [AZD7986, reference compound]
- IC50 at 24 h [2]: > 10 µM
- IC50 at 24 h [3]: > 10 µM
- NE activity, % of DMSO group [5]: 5.1%
- PR3 activity, % of DMSO group [6]: 8.1%
- Cat G activity, % of DMSO group [7]: 12.7%
- remaining activity rate of CTSC ([8]; blood): ~18.3%
- remaining activity rate of CTSC ([8]; bone marrow): approximately 10.6%
- remaining activity rate of NE ([9]; blood): ~8.1%
- remaining activity rate of NE ([9]; bone marrow): ~11.7%
- remaining activity rate of PR3 ([10]; blood): ~10.3%
- remaining activity rate of PR3 ([10]; bone marrow): ~15.8%
- remaining activity rate of Cat G ([11]; blood): ~35.2%
- remaining activity rate of Cat G ([11]; bone marrow): ~30.5%
- histopathology of ankle joints (H&E, Safranin O/Fast Green) ([12]; 30 mg/kg): reduced the histopathological statement
- clinical score vs AIA model group ([12]; 30 mg/kg gavage, from day 16 onwards): significantly lower than those of AIA model group
- volume and thickness of inflamed paws ([12]; 30 mg/kg, days 16 to 28): continuous reduction in volume and a gradual decrease in thickness
- body weight recovery ([12]; 30 mg/kg, from day 16 onwards): most significant weight recovery effects
- serum CTSC activity, % of control group [13]: approximately 35%
- serum NE activity, % of control group [14]: ~30%
- serum PR3 activity, % of control group [15]: ~40%
- serum Cat G activity, % of control group [16]: approximately 58%
- residual CTSC activity [17]: less than 8%
